Experimental data from patent US20240197726A1, “NOVEL TETRAHYDROISOQUINOLINE ALKALOID COMPOUND CONTAINING MACROCYCLE” (THE UNIVERSITY OF TOKYO, priority 2021, published 2024).
Where two headings read alike, the source gives them in different places.

Key:
Assay type in all cases: cell-based
[1] = tested on: MKN-A gastric cancer cells; test: antitumor activity, sulforhodamine B cell growth assay, MKN-A
Experimental: (§1) The THIQ compound containing a macrocyclic structure of the present invention was administered to various cancer cell lines, and the antitumor activity (Go value) was observed. Specifically, verification was performed according to the literature (Yamori, T.; Matsunaga, A.; Sato, S.; Yamazaki, K.; Komi, A.; Ishizu, K. et al. Cancer Res. 1999, 59, 4042) by the following procedure.
(§2) Cells were plated at an appropriate density in a 96-well plate in RPMI 1640 together with 5% fetal bovine serum, and adhered overnight. The cells were exposed to a drug for 48 hours. Then, according to the sulforhodamine B assay described by Skehan et al (Skehan P., Storeng R., Scudiero D., Monks A., McMahon J., Vistica D., Warren J. T., Bokesch H., Kenney S., Boyd M. R. J Natl. Cancer Inst, 1990, 82, 1107-1112), the cell growth rate was measured. The absorbance of the control well (C) and the test well (T) was measured at 525 nm. In addition, the time at which the drug was added was set as time 0, and the absorbance for the test well (T0) was measured. Using these measured values, the cell growth inhibitory effect (% growth=PG) was calculated by the following formula at each concentration of the drug.
(§3) (T<T0): PG=100×[(T−T0)/T]
(§4) The PG values determined above for each cell line were plotted against the concentration (logarithm) on a semi-logarithmic graph, and summarized for each visceral cancer. Concentrations at which the dose-response curve of each cell line crossed the horizontal line of PG=50%, 0%, or −50% were calculated. These concentrations were defined as Log GI50, Log TGI, and Log LC50. Actually, using two data points of the drug concentration before and after crossing each horizontal line, the drug concentration (logarithmic value) at the intersection of the straight line connecting the two points and the horizontal line for each PG was calculated.

OVCAR-4 cancer cells = test: antitumor activity, sulforhodamine B cell growth assay, OVCAR-4
Experimental: as §1, §2, §3, §4

[2] = tested on: SF-295 central nervous system cancer cells; test: antitumor activity, sulforhodamine B cell growth assay, SF-295
Experimental: as §1, §2, §3, §4

[3] = tested on: HCT-15 colorectal cancer cells; test: antitumor activity, sulforhodamine B cell growth assay, HCT-15
Experimental: as §1, §2, §3, §4

[4] = tested on: HBC-4 breast cancer cells; test: antitumor activity, sulforhodamine B cell growth assay, HBC-4
Experimental: as §1, §2, §3, §4

[5] = tested on: HT-29 colorectal cancer cells; test: antitumor activity, sulforhodamine B cell growth assay, HT-29
Experimental: as §1, §2, §3, §4

[6] = tested on: MKN45 gastric cancer cells; test: antitumor activity, sulforhodamine B cell growth assay, MKN45
Experimental: as §1, §2, §3, §4

[7] = tested on: MKN-B gastric cancer cells; test: antitumor activity, sulforhodamine B cell growth assay, MKN-B
Experimental: as §1, §2, §3, §4

[8] = tested on: SNB-78 central nervous system cancer cells; test: antitumor activity, sulforhodamine B cell growth assay, SNB-78
Experimental: as §1, §2, §3, §4

[9] = tested on: NCI-H522 lung cancer cells; test: antitumor activity, sulforhodamine B cell growth assay, NCI-H522
Experimental: as §1, §2, §3, §4

DMS114 lung cancer cells = test: antitumor activity, sulforhodamine B cell growth assay, DMS114
Experimental: as §1, §2, §3, §4

[10] = tested on: RXF-631L kidney cancer cells; test: antitumor activity, sulforhodamine B cell growth assay, RXF-631L
Experimental: as §1, §2, §3, §4

[11] = tested on: St-4 gastric cancer cells; test: antitumor activity, sulforhodamine B cell growth assay, St-4
Experimental: as §1, §2, §3, §4

[12] = tested on: MDA-MB-231 breast cancer cells; test: antitumor activity, sulforhodamine B cell growth assay, MDA-MB-231
Experimental: as §1, §2, §3, §4

ACHN kidney cancer cells = test: antitumor activity, sulforhodamine B cell growth assay, ACHN
Experimental: as §1, §2, §3, §4

[13] = tested on: OVCAR-5 cervical cancer cells; test: antitumor activity, sulforhodamine B cell growth assay, OVCAR-5
Experimental: as §1, §2, §3, §4

[14] = tested on: NCI-H226 lung cancer cells; test: antitumor activity, sulforhodamine B cell growth assay, NCI-H226
Experimental: as §1, §2, §3, §4

[15] = tested on: HCT-116 colorectal cancer cells; test: antitumor activity, sulforhodamine B cell growth assay, HCT-116
Experimental: as §1, §2, §3, §4

[16] = MKN-A, drug exposure 48 hours, read-out: GI50 value: 50% growth inhibitory concentration
[17] = OVCAR-4, drug exposure 48 hours, read-out: GI50 value: 50% growth inhibitory concentration
[18] = SF-295, drug exposure 48 hours, read-out: GI50 value: 50% growth inhibitory concentration
[19] = HCT-15, drug exposure 48 hours, read-out: GI50 value: 50% growth inhibitory concentration
[20] = HBC-4, drug exposure 48 hours, read-out: GI50 value: 50% growth inhibitory concentration
[21] = HT-29, drug exposure 48 hours, read-out: GI50 value: 50% growth inhibitory concentration
[22] = MKN45, drug exposure 48 hours, read-out: GI50 value: 50% growth inhibitory concentration
[23] = MKN-B, drug exposure 48 hours, read-out: GI50 value: 50% growth inhibitory concentration
[24] = SNB-78, drug exposure 48 hours, read-out: GI50 value: 50% growth inhibitory concentration
[25] = NCI-H522, drug exposure 48 hours, read-out: GI50 value: 50% growth inhibitory concentration
[26] = DMS114, drug exposure 48 hours, read-out: GI50 value: 50% growth inhibitory concentration
[27] = RXF-631L, drug exposure 48 hours, read-out: GI50 value: 50% growth inhibitory concentration
[28] = St-4 (SI-4 in Tables 2-11), drug exposure 48 hours, read-out: GI50 value: 50% growth inhibitory concentration
[29] = MDA-MB-231, drug exposure 48 hours, read-out: GI50 value: 50% growth inhibitory concentration
[30] = ACHN, drug exposure 48 hours, read-out: GI50 value: 50% growth inhibitory concentration
[31] = OVCAR-5, drug exposure 48 hours, read-out: GI50 value: 50% growth inhibitory concentration
[32] = NCI-H226, drug exposure 48 hours, read-out: GI50 value: 50% growth inhibitory concentration
[33] = HCT-116, drug exposure 48 hours, read-out: GI50 value: 50% growth inhibitory concentration

Row | SMILES | GI50 [1, 16] [µM] | GI50 (OVCAR-4 cancer cells; [17]) [µM] | GI50 [2, 18] [µM] | GI50 [3, 19] [µM] | GI50 [4, 20] [µM] | GI50 [5, 21] [µM] | GI50 [6, 22] [µM] | GI50 [7, 23] [µM] | GI50 [8, 24] [µM] | GI50 [9, 25] [µM] | GI50 (DMS114 lung cancer cells; [26]) [µM] | GI50 [10, 27] [µM] | GI50 [11, 28] [µM] | GI50 [12, 29] [µM] | GI50 (ACHN kidney cancer cells; [30]) [µM] | GI50 [13, 31] [µM] | GI50 [14, 32] [µM] | GI50 [15, 33] [µM] | other results
1 | C=C1/C=C/CN[C@@H](C)C(=O)NCC2c3c(c(c(C)c4c3OCO4)OC1)C[C@H]1[C@H]3c4c(cc(C)c(OC)c4O)C[C@@H]([C@H](C#N)N21)N3C [Compound 33] | 0.33 | 0.4 | 0.27 | 0.4 | 0.032 | 0.086 | 0.041 | 0.22 | 0.083 | 0.025 | 0.031 | 0.3 | 0.27 | 0.052 | 0.26 | 0.31 | 0.26 | 0.087 | 
2 | C#CCN1C(=O)[C@H]2[C@@H]3C=C(COc4c(C)c5c(c6c4C[C@H]4[C@H]7c8c(cc(C)c(OC)c8O)C[C@@H]([C@H](C#N)N4C6CNC(=O)[C@H](C)NC(=O)OC3)N7C)OCO5)C[C@H]2C1=O [Compound 47] |  |  |  |  |  |  |  |  |  |  |  |  |  |  |  |  |  |  | GI50 ([1]; MKN-A gastric cancer cells, read-out: antitumor activity GI50 value: 50% growth inhibitory concentration): 1.4 µM; GI50 (OVCAR-4 cancer cells; Homo sapiens, OVCAR-4 cervical cancer cells, read-out: antitumor activity GI50 value: 50% growth inhibitory concentration): 3.5 µM; GI50 ([2]; Homo sapiens, SF-295 central nervous system cancer cells, read-out: antitumor activity GI50 value: 50% growth inhibitory concentration): 1.8 µM; GI50 ([3]; Homo sapiens, HCT-15 colorectal cancer cells, read-out: antitumor activity GI50 value: 50% growth inhibitory concentration): 2.2 µM; GI50 ([4]; HBC4, HBC-4 breast cancer cells, read-out: antitumor activity GI50 value: 50% growth inhibitory concentration): 0.2 µM; GI50 ([5]; Homo sapiens, HT-29 colorectal cancer cells, read-out: antitumor activity GI50 value: 50% growth inhibitory concentration): 0.49 µM; GI50 ([6]; Homo sapiens, MKN-45, MKN45 gastric cancer cells, read-out: antitumor activity GI50 value: 50% growth inhibitory concentration): 0.47 µM; GI50 ([7]; MKN-B gastric cancer cells, read-out: antitumor activity GI50 value: 50% growth inhibitory concentration): 0.73 µM; GI50 ([8]; Homo sapiens, SNB-78 central nervous system cancer cells, read-out: antitumor activity GI50 value: 50% growth inhibitory concentration): 0.26 µM; GI50 ([9]; Homo sapiens, NCI-H522, NCl-H522 lung cancer cells, read-out: antitumor activity GI50 value: 50% growth inhibitory concentration): 0.029 µM; GI50 (DMS114 lung cancer cells; Homo sapiens, DMS-114, DMS114 lung cancer cells, read-out: antitumor activity GI50 value: 50% growth inhibitory concentration): 0.031 µM; GI50 ([10]; RXF-631L kidney cancer cells, read-out: antitumor activity GI50 value: 50% growth inhibitory concentration): 2.1 µM; GI50 ([11]; SI-4 gastric cancer cells, read-out: antitumor activity GI50 value: 50% growth inhibitory concentration): 2.2 µM; GI50 ([12]; Homo sapiens, MDA-MB-231 breast cancer cells, read-out: antitumor activity GI50 value: 50% growth inhibitory concentration): 0.18 µM; GI50 (ACHN kidney cancer cells; Homo sapiens, ACHN kidney cancer cells, read-out: antitumor activity GI50 value: 50% growth inhibitory concentration): 2.6 µM; GI50 ([13]; Homo sapiens, OVCAR-5 cervical cancer cells, read-out: antitumor activity GI50 value: 50% growth inhibitory concentration): 2.8 µM; GI50 ([14]; Homo sapiens, NCI-H226, NCl-H226 lung cancer cells, read-out: antitumor activity GI50 value: 50% growth inhibitory concentration): 2.3 µM; GI50 ([15]; Homo sapiens, HCT-116 colorectal cancer cells, read-out: antitumor activity GI50 value: 50% growth inhibitory concentration): 0.45 µM
3 | COc1c(C)cc2c(c1O)[C@@H]1[C@@H]3Cc4c5c(C)c6c(c4C(CNC(=O)[C@H](C)NC(=O)OCC4C=C(CO5)Cn5c(=O)n(-c7ccccc7)c(=O)n54)N3[C@@H](C#N)[C@H](C2)N1C)OCO6 [Compound 16] | 0.029 |  |  |  |  |  |  | 0.03 |  |  |  | 0.035 | 0.037 |  |  |  |  |  | GI50 (OVCAR-4 cancer cells; Homo sapiens, OVCAR-4, drug exposure 48 hours, read-out: GI50 value: 50% growth inhibitory concentration): 0.036 µM; GI50 ([2]; Homo sapiens, SF-295, drug exposure 48 hours, read-out: GI50 value: 50% growth inhibitory concentration): 0.029 µM; GI50 ([3]; Homo sapiens, HCT-15, drug exposure 48 hours, read-out: GI50 value: 50% growth inhibitory concentration): 0.043 µM; GI50 ([4]; HBC4, HBC-4, drug exposure 48 hours, read-out: GI50 value: 50% growth inhibitory concentration): 0.0052 µM; GI50 ([5]; Homo sapiens, HT-29, drug exposure 48 hours, read-out: GI50 value: 50% growth inhibitory concentration): 0.0073 µM; GI50 ([6]; Homo sapiens, MKN-45, MKN45, drug exposure 48 hours, read-out: GI50 value: 50% growth inhibitory concentration): 0.0071 µM; GI50 ([8]; Homo sapiens, SNB-78, drug exposure 48 hours, read-out: GI50 value: 50% growth inhibitory concentration): 0.0075 µM; GI50 ([9]; Homo sapiens, NCI-H522, drug exposure 48 hours, read-out: GI50 value: 50% growth inhibitory concentration): 0.0024 µM; GI50 (DMS114 lung cancer cells; Homo sapiens, DMS-114, DMS114, drug exposure 48 hours, read-out: GI50 value: 50% growth inhibitory concentration): 0.0038 µM; GI50 ([12]; Homo sapiens, MDA-MB-231, drug exposure 48 hours, read-out: GI50 value: 50% growth inhibitory concentration): 0.0067 µM; GI50 (ACHN kidney cancer cells; Homo sapiens, ACHN, drug exposure 48 hours, read-out: GI50 value: 50% growth inhibitory concentration): 0.025 µM; GI50 ([13]; Homo sapiens, OVCAR-5, drug exposure 48 hours, read-out: GI50 value: 50% growth inhibitory concentration): 0.031 µM; GI50 ([14]; Homo sapiens, NCI-H226, drug exposure 48 hours, read-out: GI50 value: 50% growth inhibitory concentration): 0.025 µM; GI50 ([15]; Homo sapiens, HCT-116, drug exposure 48 hours, read-out: GI50 value: 50% growth inhibitory concentration): 0.0093 µM
4 | COc1c(C)cc2c(c1O)C1C3Cc4c5c(C)c6c(c4C(CNC(=O)C(C)NC(=O)OCC4C=C(CO5)CC5C(=O)N(c7ccccc7)C(=O)C45)N3C(C#N)C(C2)N1C)OCO6 (stereo not drawn) [Compound 18] | 0.21 | 0.35 | 0.3 | 0.63 | 0.03 | 0.072 | 0.078 | 0.16 | 0.04 | 0.02 | 0.012 | 0.31 | 0.3 | 0.041 | 0.24 | 0.28 | 0.28 | 0.074 | 
